Test results as given in publication PMC10967822, “Antimicrobial Indole-3-Carboxamido-Polyamine Conjugates Target Bacterial Membranes and Are Antibiotic Potentiators” (Biomolecules, 2024).
Values after ≈ are worked out from the molar mass of the structure shown.

Assays:
[1] = Cytotoxicity assay (resazurin); type: cell-based; details: human, HEK293 cells, mean n = 2
E. coli ATCC 25922 [2] = assay: MIC, broth dilution, E. coli; type: cell-based, Escherichia coli; details: Escherichia coli, ATCC25922; E. coli ATCC 25922, 18 h
human red blood cells = assay: Hemolytic assay; type: cell-based; details: 10% hemolytic activity, mean n = 2
Summary of the method: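 Compounds were applied to saline-washed human red blood cells at 0.5 × 10^8 cells/mL, 37 °C, 1 h. Lysis was measured by supernatant absorbance at 405 nm, and concentrations giving 10% and 50% haemolysis were obtained by variable-slope curve fitting.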

E. coli ATCC 25922 [3] = assay: Erythromycin potentiation against E. coli; type: cell-based, Escherichia coli; details: erythromycin at 2 µg/mL (2.7 µM); for Erythro/Ec fold-change (intrinsic MIC / combination MIC): E. coli; for Erythro/Ec: concentration required to restore erythromycin activity (combination MIC): mean n = 3
From the text: (§1) These measurements were independently repeated in triplicate.

MRSA ATCC 43300 = assay: MIC, broth microdilution (CO-ADD), MRSA; type: cell-based, methicillin-resistant S. aureus; details: Staphylococcus aureus; MRSA ATCC 43300; top dose 32 µg/mL; read-out: MIC MRSA
P. aeruginosa ATCC 27853 [4] = assay: MIC, broth dilution, P. aeruginosa; type: cell-based, Pseudomonas aeruginosa; details: Pseudomonas aeruginosa, ATCC27853; P. aeruginosa ATCC 27853, 18 h; read-out: MIC Pa
A. baumannii ATCC 19606 = assay: MIC, broth microdilution (CO-ADD), A. baumannii; type: cell-based, Acinetobacter baumannii; details: Acinetobacter baumannii, ATCC19606, top dose 32 µg/mL
[5] = tested on: C. neoformans ATCC 208821; assay: Antifungal MIC (CO-ADD), C. neoformans; type: cell-based; details: Cryptococcus neoformans, ATCC208821, top dose 32 µg/mL
Summary of the method: (§2)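 MIC for C. neoformans determined by OD570–600 following a further 3 h with resazurin (0.006% final), whereas C. albicans was read directly at OD530. Both grown static in YNB broth at 2.5 × 10^3 CFU/mL final inoculum, 35 °C for 36 h, from colonies cultured on YPD agar 3 days at 30 °C.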

[6] = tested on: K. pneumoniae ATCC 700603; assay: MIC, broth microdilution (CO-ADD), K. pneumoniae; details: top dose 32 µg/mL
P. aeruginosa ATCC 27853 [7] = assay: Doxycycline potentiation against P. aeruginosa; type: cell-based, Pseudomonas aeruginosa; details: doxycycline at 2 µg/mL (4.5 µM); for Dox/Pa fold-change (intrinsic MIC / combination MIC): P. aeruginosa ATCC 27853; for Dox/Pa: concentration required to restore doxycycline activity (combination MIC): P. aeruginosa ATCC 27853, mean n = 3
From the text: as §1

C. albicans ATCC 90028 = assay: Antifungal MIC (CO-ADD), C. albicans; type: cell-based; details: Candida albicans, ATCC90028, top dose 32 µg/mL
Summary of the method: as §2

S. aureus ATCC 25923 = assay: MIC, broth dilution, S. aureus; type: cell-based, Staphylococcus aureus; details: Staphylococcus aureus, ATCC25923; S. aureus ATCC 25923, 18 h; read-out: MIC Sa

Compound	MIC (E. coli ATCC 25922 [2])	Erythro/Ec fold-change (intrinsic MIC / combination MIC) (E. coli ATCC 25922 [3])	Erythro/Ec: concentration required to restore erythromycin activity (combination MIC) (E. coli ATCC 25922 [3])	MIC (MRSA ATCC 43300)	MIC (P. aeruginosa ATCC 27853 [4])	MIC (A. baumannii ATCC 19606)	MIC [5]	MIC Kp [6]	Dox/Pa fold-change (intrinsic MIC / combination MIC) (P. aeruginosa ATCC 27853 [7])	Dox/Pa: concentration required to restore doxycycline activity (combination MIC) (P. aeruginosa ATCC 27853 [7])	MIC (C. albicans ATCC 90028)	MIC (S. aureus ATCC 25923)	IC50 at 20 h [1]	Hemolysis HC10 (human red blood cells)
COc1cccc2c(C(=O)NCCCNCCCCCCCNCCCNC(=O)c3c[nH]c4c(OC)cccc34)c[nH]c12.O=C(O)C(F)(F)F.O=C(O)C(F)(F)F [Compound 17c]	244 µM	1 fold	244 µM	2.44 µM	> 244 µM	> 39 µM	≤ 0.31 µM	>39 µM	> 8 fold	30.5 µM	> 39 µM	122 µM	> 39 µM	>39 µM
COc1cccc2c(C(=O)NCCCNCCCCCCCCNCCCNC(=O)c3c[nH]c4c(OC)cccc34)c[nH]c12 [Compound 17d]	240 µM (≈ 145 µg/mL)	2 fold	120 µM	≤ 0.3 µM	> 240 µM	> 38 µM	≤ 0.3 µM	>38 µM	> 4 fold	60.0 µM	> 38 µM	120 µM (≈ 72.6 µg/mL)	> 38 µM	>38 µM
COc1cccc2c(C(=O)NCCCNCCCCCCCCCCNCCCNC(=O)c3c[nH]c4c(OC)cccc34)c[nH]c12.O=C(O)C(F)(F)F.O=C(O)C(F)(F)F [Compound 17e]	> 232 µM	1 fold	> 232 µM	≤ 0.29 µM	> 232 µM	> 37 µM	≤ 0.29 µM	>37 µM	> 4 fold	58.1 µM	> 37 µM	232 µM	> 37 µM	>37 µM
COc1cccc2c(C(=O)NCCCNCCCCCCCCCCCCNCCCNC(=O)c3c[nH]c4c(OC)cccc34)c[nH]c12.O=C(O)C(F)(F)F.O=C(O)C(F)(F)F [Compound 17f]	28.1 µM	0.5 fold	56.2 µM	≤ 0.28 µM	225 µM	> 36 µM	≤ 0.28 µM	>36 µM	4 fold	56.2 µM	4.5 µM	7.03 µM	> 36 µM	>36 µM

The next lines start with results.

MIC (E. coli ATCC 25922 [2])	Erythro/Ec fold-change (intrinsic MIC / combination MIC) (E. coli ATCC 25922 [3])	Erythro/Ec: concentration required to restore erythromycin activity (combination MIC) (E. coli ATCC 25922 [3])	MIC (MRSA ATCC 43300)	MIC (P. aeruginosa ATCC 27853 [4])	MIC (A. baumannii ATCC 19606)	MIC [5]	MIC Kp [6]	Dox/Pa fold-change (intrinsic MIC / combination MIC) (P. aeruginosa ATCC 27853 [7])	Dox/Pa: concentration required to restore doxycycline activity (combination MIC) (P. aeruginosa ATCC 27853 [7])	MIC (C. albicans ATCC 90028)	MIC (S. aureus ATCC 25923)	Compound	IC50 at 20 h [1]	Hemolysis HC10 (human red blood cells)
129 µM (≈ 70.3 µg/mL)	4 fold	32.4 µM	> 41 µM	> 259 µM	> 41 µM	≤ 0.32 µM	>41 µM	> 8 fold	32.4 µM	> 41 µM	129 µM (≈ 70.3 µg/mL)	Cc1cccc2c(C(=O)NCCCNCCCCCCNCCCNC(=O)c3c[nH]c4c(C)cccc34)c[nH]c12 [Compound 18b]	> 41 µM	>41 µM
> 254 µM	1 fold	> 254 µM	≤ 0.32 µM	254 µM (≈ 142 µg/mL)	> 41 µM	≤ 0.32 µM	>41 µM	16 fold	15.9 µM	> 41 µM	> 254 µM	Cc1cccc2c(C(=O)NCCCNCCCCCCCNCCCNC(=O)c3c[nH]c4c(C)cccc34)c[nH]c12 [Compound 18c]	> 41 µM	>41 µM
> 250 µM	1 fold	250 µM	≤ 0.31 µM	250 µM (≈ 143 µg/mL)	> 40 µM	≤ 0.31 µM	>40 µM	8 fold	31.2 µM	> 40 µM	> 250 µM	Cc1cccc2c(C(=O)NCCCNCCCCCCCCNCCCNC(=O)c3c[nH]c4c(C)cccc34)c[nH]c12 [Compound 18d]	> 40 µM	>40 µM
30.2 µM (≈ 18.1 µg/mL)	2 fold	15.1 µM	≤ 0.3 µM	60.3 µM (≈ 36.2 µg/mL)	> 39 µM	≤ 0.3 µM	>39 µM	4 fold	15.1 µM	4.83 µM (≈ 2.9 µg/mL)	30.2 µM (≈ 18.1 µg/mL)	Cc1cccc2c(C(=O)NCCCNCCCCCCCCCCNCCCNC(=O)c3c[nH]c4c(C)cccc34)c[nH]c12 [Compound 18e]	> 39 µM	>39 µM
117 µM	1 fold	116.7 µM	≤ 0.29 µM	117 µM	9.33 µM	≤ 0.29 µM	>37 µM	4 fold	29.2 µM	≤ 0.29 µM	117 µM	Cc1cccc2c(C(=O)NCCCNCCCCCCCCCCCCNCCCNC(=O)c3c[nH]c4c(C)cccc34)c[nH]c12.O=C(O)C(F)(F)F.O=C(O)C(F)(F)F [Compound 18f]	> 37 µM	>37 µM
